The values below come from patent publication US20240041899A1, “SOLID PREPARATION” (ASKA Pharmaceutical Co., Ltd., priority 2020, published 2024).

In one experiment the test system is ovariectomized rats. The experiment in a line: Test Example 5: antiprogesterone activity, uterine weight associated with rat deciduoma formation. The format is in vivo. The method, then: For the compound A and the compound D (mifepristone), the antiprogesterone activity was measured. Specifically, a sex hormone and a test substance were repeatedly administered to ovariectomized rats as a test system to examine the antiprogesterone action (antiprogesterone activity) based on, as an index, the fluctuation of the uterine weight (the inhibitory action relative to the increase of the weight) associated with rat deciduoma formation.
More specifically, rats (female, Crl:CD(SD), 5-week-old: Charles River Laboratories Japan, Inc.) were subjected to ovariectomy, and from one (1) week after the ovariectomy, a high dose estrone of 5 μg/one animal was hypodermically administered to the rats once a day for three (3) days. From the day after one day rest period, the rats received, once a day over eight (8) days, hypodermic administration of a low dose estrone (1 μg/one animal), intramuscular administration of progesterone (6 mg/kg), and oral administration of a test substance. In the middle of the administration, on Day 4 of the start of administration, the rats were subjected to a stimulation treatment of decidualization reaction to the right uterus. The day after the final administration, the uterine weight (right uterine body) was measured (n=6). Group E was subjected to ovariectomy and a stimulation treatment of decidualization reaction but was not subjected to a hormone treatment.
Group E: rats with ovariectomy without hormone treatment 0.5 v/v % Polysorbate 80 solution, 10 mL/kg (n=6) • Solvent group (control group): 0.5 v/v % Polysorbate 80 solution, 10 mL/kg (n=6) • Group A3: Compound A, 3 mg/kg (n=6) • Group A10: Compound A, 10 mg/kg (n=6) • Group A30: Compound A, 30 mg/kg (n=6) • Group D: Compound D (mifepristone), 3 mg/kg (n=6)

The subject of experiment [1] is rats having the urination disorder associated with diabetes. The experiment in a line: Test Example 6: urination disorder model associated with streptozocin-induced diabetes, compound A versus compound C. Type of experiment: in vivo. The note with it: STZ diabetes model. The method, then:
As described below, a model of a urination disorder associated with streptozocin-induced diabetes was prepared as a urination disorder model in accordance with Test Example 4 to evaluate the effects of the compound A and the compound C on a urination disorder. This model has no benign prostatic hyperplasia and is a model of a urination disorder associated with neuropathy and smooth muscle contraction disorder.
The body weights of Rats (male, Crl:CD(SD), 5-week-old; Charles River Laboratories Japan, Inc.) were measured. On the basis of the body weight, the rats were grouped or divided into two (2) groups. The day after the rats were grouped, a first group received intraperitoneal administration of a citrate buffer (pH 4.5) (10 mL/kg) having a concentration of 0.1 mmol/L, and a second group received intraperitoneal administration of streptozocin (STZ; Sigma-Aldrich) (50 mg/kg). Streptozocin (STZ) was administered in the form of a solution of streptozocin having a concentration of 5 mg/mL in the citrate buffer.
About one (1) week after streptozocin (STZ) was administered, the body weight and the fasting blood glucose were measured. In the streptozocin (STZ) administration group (the second group), individuals having a fasting blood glucose level of not less than 300 mg/dL were used as animals with induced diabetes. These animals with induced diabetes are a model having no abnormality of the prostate (having no benign prostatic hyperplasia). On the basis of the body weight and the fasting blood glucose level, the animals (models) with induced diabetes were grouped or divided into three (3) groups by randomized, multivariable block allocation.
To the three model groups with induced diabetes, a 0.5 v/v % Polysorbate 80 solution (0.5% P) (10 mL/kg), the compound A (3 mg/kg), and the compound C (dutasteride) (0.3 mg/kg) were orally administered, respectively, wherein the administration schedule in all groups was a frequency of once a day, only on weekdays, over four (4) weeks. Moreover, to the above-mentioned first group, a 0.5 v/v % Polysorbate 80 solution (0.5% P) (10 mL/kg) was orally administered in the same administration schedule (normal group). On the last day of administration, a cannula was inserted into and secured to the dome of the bladder under isoflurane anesthesia, and cystometry (Cystometogram, CMG) was conducted in the order of under awake condition and under urethane anesthesia to measure the intravesical pressure, the voided volume, and the residual urine volume. After the completion of the measurement, the blood was collected under deep isoflurane anesthesia, and then the prostate (ventral prostate, dorsolateral prostate) was extracted and each was weighed. Moreover, the blood glucose level in the collected blood was measured.
Normal group: citrate buffer 10 mL/kg (intraperitoneal administration), 0.5% P 10 mL/kg (oral administration) (n=10) • Solvent group (control group): STZ 50 mg/kg (intraperitoneal administration), 0.5% P 10 mL/kg (oral administration) (n=10) • Group A3: STZ 50 mg/kg (intraperitoneal administration), Compound A 3 mg/kg (oral administration) (n=10) • Group C0.3: STZ 50 mg/kg (intraperitoneal administration), Compound C (dutasteride) 0.3 mg/kg (oral administration) (n=10)
Urination parameter: In the same manner as in Test Example 4, the residual urine volume (mL) and the urination efficiency (%) were determined as urination parameters in each urination, and the average value of two measurements was taken as a measured value of each individual.
Prostate weight: In the same manner as in Test Example 4, the weight of the prostate (ventral prostate, dorsolateral prostate, and whole) was converted to a tissue weight per 100 g of the body weight. For Group A3, which received the compound A, and Group C0.3, which received the compound C, the inhibition rate of the weight of the prostate relative to the weight of the prostate in the solvent group was calculated (with one decimal place). […]

Where [2] appears, read: Compound A 3 mg/kg, in comparison with the solvent group (p<0.05).
Setting [3] is: Compound A oral 3 mg/kg, 4 weeks.
Where [4] appears, read: Compound A oral 3 mg/kg, relative to solvent group.

Broadly, the inhibition is the drop in the measured response relative to a control, in per cent. Turning to `CC(=O)O[C@]1(C(C)=O)C[C@@H](O)[C@H]2[C@@H]3C=C(Cl)C4=CC(=O)OC[C@]4(C)[C@H]3CC[C@@]21C` [Compound A, 17α-acetoxy-6-chloro-15β-hydroxy-2-oxa-4,6-pregnadiene-3,20-dione], the inhibition at 3 mg/kg in the experiment with ovariectomized rats (Rattus norvegicus, 192 h, ovariectomized rats, estrone + progesterone, oral 3 mg/kg once a day 8 days, compared with the solvent group, read-out: inhibition rate (increase of uterine weight, deciduoma formation)) came out at 15%. Moreover, in the experiment on ovariectomized rats (Rattus norvegicus, 192 h, ovariectomized rats, estrone + progesterone, oral 10 mg/kg once a day 8 days, compared with the solvent group, read-out: inhibition rate (increase of uterine weight, deciduoma formation)), the inhibition at 10 mg/kg is 63%. The inhibition at 30 mg/kg in the experiment with ovariectomized rats (Rattus norvegicus, 192 h, ovariectomized rats, estrone + progesterone, oral 30 mg/kg once a day 8 days, compared with the solvent group, read-out: inhibition rate (increase of uterine weight, deciduoma formation)) came out at 83.3%. Further, in the experiment with ovariectomized rats (ovariectomized rats, 3, 10, 30 mg/kg oral), the antiprogesterone activity entry is given as “has an antiprogesterone activity”. Besides, the “therapeutic effect on diabetes” value in experiment [1] (Compound A 3 mg/kg) was “no therapeutic effect”. For the same compound, the “weights of the ventral prostate, the dorsolateral prostate, and the whole prostate” value in experiment [1] (Compound A 3 mg/kg, compared with the solvent group (P<0.05)) is given as “significant decrease”. Also, in experiment [1] (setting [2]), the “residual urine volume, cystometry (CMG) under awake condition” value is recorded as “significantly decreased” and the “urination efficiency, cystometry (CMG) under awake condition” value is on record as “significantly improved”. Further, the “bladder contraction force on urination by nomogram analysis” value in experiment [1] (Compound A 3 mg/kg, in comparison with the solvent group and Group C0.3) is listed as “strong bladder contraction force”. Besides, in experiment [1] (Compound A 3 mg/kg, vs solvent group), the “effect on the blood glucose level” value was “did not statistically affect”. Also, in experiment [1] (setting [3]), the Blood glucose level amounted to 972.4 ± 312.3 mg/dL; the “Prostate weight, dorsolateral prostate” value is reported as 38.8 ± 4.2 mg/100 g body weight; the “Prostate weight, ventral prostate” value is recorded as 61.2 ± 12.4 mg/100 g body weight; the “Prostate weight, whole” value was 99.9 ± 15.5 mg/100 g body weight. In experiment [1] (setting [4]), the “Dorsolateral prostate atrophy rate” value was “(40.2%)”, the “Ventral prostate atrophy rate” value is reported as “(40.0%)” and the “Whole prostate atrophy rate” value is listed as “(40.1%)”.
